Results reported in PubChem BioAssay (NCI).
Values joined by “and” are separate entries in the source; they are usually repeats but may differ in a detail not shown here. Equal values may be shown once.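 1) Cells in 96-well plates. 2) Compound, 48 h, 5 concentrations. 3) Linear interpolation between surrounding doses. 4) Unreached endpoint = highest concentration. GI50: concentration for 50% inhibition of growth. TGI is the concentration that stops growth completely.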

What was measured:
Assay in all cases: growth of human tumour cells (NCI), 48 h
[1] = tested on: SK-OV-3 ovarian
[2] = tested on: HL-60(TB) leukemia
[3] = tested on: RPMI-8226 leukemia
[4] = tested on: RXF 393 renal
[5] = tested on: HOP-62 NSCLC
[6] = tested on: OVCAR-5 ovarian
[7] = tested on: HCC-2998 colon
[8] = tested on: SK-MEL-2 melanoma

| SMILES | GI50 [1] | TGI [1] | GI50 [2] | TGI [2] | GI50 [3] | TGI [3] | GI50 [4] | TGI [4] | GI50 [5] | TGI [5] | GI50 [6] | TGI [6] | GI50 [7] | TGI [7] | GI50 [8] | TGI [8] |
| --- | --- | --- | --- | --- | --- | --- | --- | --- | --- | --- | --- | --- | --- | --- | --- | --- |
| Oc1c(CCl)cc(Cl)cc1Cc1cc(Cl)cc(Cc2cc(Cl)cc(CCl)c2O)c1O | 3.25 µM | 11.4 µM | 2.48 µM | 8.13 µM | 3.08 µM | 91.7 µM | 2.59 µM | 9.43 µM | 4.42 µM | 26.5 µM | 12.2 µM | 38.7 µM | 2.8 µM | 12.2 µM | 2.16 µM | 6.82 µM |
| N#CC1(C#N)C2C=CC(C3CC=CC32)C1(C#N)C#N (configuration not stated) | – | > 50 µM | – | 2.87 µM | 8.86 µM | 4.89 µM and 21.1 µM | – | 8.29 µM and 13.4 µM | – | 33.3 µM | – | 16.8 µM | – | > 50 µM | – | 32.1 µM |
| Nc1ncnc2occ(-c3ccc(NC(=O)Nc4cc(C(F)(F)F)ccc4F)cc3)c12 | 8.24 µM and 4.19 µM | 25 µM and 12.6 µM | 6.88 µM and 6.16 µM | 16 µM and 14.7 µM | 6.29 µM and 5.04 µM | 17.7 µM and 16.2 µM | 2.95 µM and 1.11 µM | 7.06 µM and 3.92 µM | 6.32 µM and 2.3 µM | 16.2 µM and 5.95 µM | 6.44 µM and 5.95 µM | 16.2 µM and 13.7 µM | 8.02 µM and 3.98 µM | 19 µM and 8.87 µM | 6.25 µM and 3.36 µM | 12.3 µM and 8.36 µM |
| CN1CCN(C(=O)OCc2nc3c(N4CCOCC4)nc(-c4ccccc4)nc3n2C)CC1 | 2.97 µM | 9.13 µM | 0.753 µM | 2.66 µM | 0.335 µM | 1.87 µM | 0.687 µM | 1.98 µM | 1.53 µM | 3.79 µM | 1.46 µM | 3 µM | 1.58 µM | 3.21 µM | 1.85 µM | 3.69 µM |
| CC(=O)N[C@@H](Cc1ccc(OP(=O)(O)O)cc1)C(=O)N[C@H]1CCC(=O)N2CCC[C@@H](C(=O)NCc3cccc4ccccc34)N2C1=O | > 25 µM | > 25 µM | > 25 µM | > 25 µM | > 25 µM | > 25 µM | > 25 µM | > 25 µM | > 25 µM | > 25 µM | > 25 µM | > 25 µM | > 25 µM | > 25 µM | > 25 µM | > 25 µM |
| O=C(CSc1nc2ccc([N+](=O)[O-])cc2[nH]1)Nc1ccc([N+](=O)[O-])cc1 | 1.89 µM | 5.59 µM | 2.81 µM | > 25.7 µM | 1.27 µM | > 23.2 µM | 1.95 µM | 7.24 µM | 2.32 µM | 12.1 µM | 2.78 µM | 12.9 µM | 3 µM | 15.3 µM | 1.97 µM | 5.81 µM |
| CC(C)c1ccc2c(c1)CCC1C(C)(CN)CCCC21C (configuration not stated) | – | 3.98 µM | – | 3.09 µM | – | 4.3 µM | – | 2.98 µM | – | 3.14 µM | – | 3.33 µM | – | 0.485 µM | – | 3.15 µM |
| CSc1nc(SC)c2cnn(-c3ccnc4cc(Cl)ccc34)c2n1 | > 81.1 µM | > 100 µM | 21.5 µM | 50.6 µM | > 55.7 µM | > 100 µM | 14.2 µM | 48.6 µM | 29.1 µM | > 96.1 µM | > 100 µM | > 100 µM | 82.7 µM | > 100 µM | > 44.9 µM | > 72.8 µM |
| O=C(/C=C/c1cccnc1)c1ccccc1 | 14.6 µM | 27.9 µM | 7.02 µM | 28.8 µM | 2.46 µM | 6.24 µM | 10.9 µM | 23.2 µM | 13.7 µM | 26.8 µM | 14.7 µM | 33.3 µM | 14.9 µM | 29.1 µM | 13.5 µM | 27 µM |
| COc1ccc(/C=C/C(=O)c2ccc(B(O)O)cc2)cc1O | 22.2 µM | > 89.1 µM | 2.52 µM | 44.2 µM | 3.27 µM | 23 µM | 11.5 µM | 39.6 µM | 18.5 µM | > 57.2 µM | 21.5 µM | 69.5 µM | 6.46 µM | 18.6 µM | 26.1 µM | 64.9 µM |
| CC(C)[C@]12O[C@H]1[C@@H]1O[C@]13[C@]1(O[C@H]1C[C@H]1C4=C(CC[C@@]13C)C(=O)OC4)[C@@H]2OC(=O)OC(C)(C)C | 0.0402 µM | > 100 µM | < 0.01 µM | 0.805 µM | 0.0195 µM | > 42.5 µM | < 0.0118 µM | 0.0286 µM | 0.0146 µM | > 100 µM | 0.0419 µM | > 100 µM | 0.0166 µM | 0.064 µM | 0.0185 µM | 0.0603 µM |
| COc1cc2c3c(n(CCCNC(C)(C)CO)c(=O)c2cc1OC)-c1cc2c(cc1C3=O)OCO2 | 17.9 µM | > 68.2 µM | 0.539 µM | 4.16 µM | 0.0169 µM | 0.464 µM | 16.2 µM | > 68 µM | 0.131 µM | 5.14 µM | 16.3 µM | 36.8 µM | 1.39 µM | 7.87 µM | 30.8 µM | > 78.5 µM |
